The text below walks through data of patent EP0714662A1, “ANTIALLERGIC AGENT” (MEIJI MILK PRODUCTS COMPANY LIMITED, priority 1993, dated 1995).

Ends that are not written are not given here. Peptide text beside a SMILES is read from it.

The first experiment deals with basophils of a patient. Nature of the experiment: Histamine release inhibition test with peptide D, blood of egg allergy patients. It is filed as cell-based, human. The following applies: peptide D 1.4 mg/ml. The procedure: The histamine release inhibition test was performed using a histamine kit "Eiken" manufactured by Eiken Kagaku K.K. Briefly, heparinized peripheral blood was collected from each patient, and the blood was diluted to a 1:1 ratio using a buffer for release tests. Equivalent amounts of a diluted peptide D (which had been diluted to double the density of an inhibitory concentration using a buffer for release tests) and a diluted blood from a patient (which had been diluted to a 1:1 ratio) were mixed and allowed to react overnight at 4°C. Subsequently, fifty µl of peptide B or OVA diluted with a buffer for release was mixed with 100 µl of the patient's blood with which peptide D was reacted. […] After the histamine tubes were incubated for 16 to 24 hours, the solution was drawn off using an aspirator, and measured using a gamma scintillation counter. The amount of total histamine was determined using a supernatant sample obtained by adding 1 ml of purified water to 50 µl of whole blood, freezing and thawing, then centrifugally separating. […] The ratio of the difference with respect to the total amount of histamine was calculated and taken as a histamine release ratio. Inhibition ratio (%) was calculated by the following equation: %Inhibition = {1-(histamine release ratio in the presence of an inhibitory peptide)/(histamine release ratio in the absence of an inhibitory peptide)} x 100 [formula] […]
For EFRADHPFLF [peptide D], the “suppression ratio of histamine release caused by untreated OVA” value is recorded as 93%.

Still in this experiment, the particulars now being: peptide D at a concentration of not less than 1.4 mg/ml.
For the compound EFRADHPFLF [peptide D], the “suppression of histamine release caused by stimulant peptide B” value was “at least 85%”.

For a further experiment, the system named is serum IgE from 15 patients suffering from mite rhinallergosis. Nature of the experiment: Enzyme antibody assay: binding of solid phase Der p II overlapping peptides to patients' serum IgE. Details: species or system human. Particulars: serum from each of 15 patients. The procedure:
The complete primary structure of the amino acid sequence of a Der p II protein was determined after cDNA was isolated therefrom by Chua et al. (Int. Arch. Allergy Appl. Immunol. 91: 118-123, 1990). Based on the amino acid sequence, peptides were synthesized on a solid phase using a multipin system (manufactured by Chiron) and coupling reagents, Fmoc-amino acid and DCC (dicyclohexyl carbodiimide) (Geysen, H.M. et al., Proc. Natl. Acad. Sci. USA. 81:3998-4002, 1984). Sixty-one kinds of peptides were synthesized, the first peptide comprising the first through ninth amino acids of the N-terminal of Der p II, the second peptide comprising the third through eleventh amino acids of the N-terminal, and the third through 61st peptides being prepared in an analogous manner.
The RAST (radio-allergosorbent test, Pharmacia) values as determined using antigens from two mite species, Dermatophagoides pteronyssinus (Der p) and Dermatophagoides farina (D f), were class 4. Each of the above-mentioned 61 synthesized peptides and 100 µl of each patient's serum were placed in a 96-well plate and reacted overnight at room temperature. Synthesized peptides in a solid phase were washed three times to remove the patient's serum using a washing solution of 0.05% Tween 20/0.15 M NaCl/Tris-HCl (pH 7.5). 100 µl of galactosidase-labelled anti-human IgE antibodies (Pharmacia) were diluted to 40-fold using a 1:9 diluted Block-ace (product of Dainippon Seiyaku K.K.). The diluted solution was added to a 96-well plate, each synthesized solid phase peptide was also added, and reaction, was allowed to proceed overnight at room temperature. The synthesized solid phase peptide was washed with the same washing solution five times. Thereafter, to a 96-well black plate (manufactured by Dainippon Seiyaku K.K.), were added 200 µl of a solution of 0.1 mM 4-methylumbelliferyl-β-D-galactopyranoside in 0.1% bovine serum albumin/0.1 M NaCl/1 mM MgCl₂/0.1% sodium azide/10 mM phosphate buffer (pH 7.0). Subsequently, the synthesized solid phase peptide was added and reacted for 2 hours at 37°C. After completion of reaction, 100 µl of a reaction terminating solution (0.1 M glycin/NaOH, pH 10.3) were added to each well, and absorbance was measured using a fluorospectrophotometer for 96-well plates (Manufactured by Flow). This reaction was studied for each of 15 patients.
As for SIDGLEVDV [synthesized peptide No. 29], the “binding reactions with IgE antibodies” value is recorded as “exhibited binding reactions with IgE antibodies”. As for KIEIKASID [synthesized peptide No. 26], the “binding reactions with IgE antibodies” value was “exhibited binding reactions with IgE antibodies”. Consider NVPKIAPKS [synthesized peptide No. 47], for which the “binding reactions with IgE antibodies” value is “exhibited binding reactions with IgE antibodies”.

In the case of SENVVVTVK [synthesized peptide No. 51], the “binding reactions with IgE antibodies” value was “exhibited binding reactions with IgE antibodies”. In the case of VVTVKVMGD [synthesized peptide No. 53], the “binding reactions with IgE antibodies” value was “exhibited binding reactions with IgE antibodies”. Still for that read-out and setting: for ANQNTKTAK [synthesized peptide No. 22] the value was “exhibited binding reactions with IgE antibodies”; for FQLEAVFEA [synthesized peptide No. 18], “exhibited binding reactions with IgE antibodies”; for KCPLVKGQQ [synthesized peptide No. 39], “exhibited binding reactions with IgE antibodies”. As for IATHAKIRD [synthesized peptide No. 61], the “binding reactions with IgE antibodies” value was “exhibited binding reactions with IgE antibodies”. Still for that read-out and setting: then PKSENVVVT [synthesized peptide No. 50], with “exhibited binding reactions with IgE antibodies”.

The subject of a further experiment is serum IgE of cryptomeria pollinosis patients. Nature of the experiment: Enzyme antibody assay: binding of solid phase Cry j II overlapping peptides to patients' serum IgE. Details: species or system human.
Conditions: not given
From the text:
Presently, however, the C-terminal amino acids are unknown. Therefore, overlapping peptides were synthesized on a solid phase using an Fmoc-amino acid and multipin system (manufactured by Chiron) so as to cover all the proteins consisting of 460 amino acid residues (Sequence No. 1) other than the N-terminal moiety. The first peptide comprises the first through ninth amino acids in the N-terminal moiety of a Cry j II protein. The second peptide comprises the third through eleventh amino acids in the N-terminal moiety.
Subsequently, using a washing solution of 0.05% Tween 20/0.15 M NaCl/Tris-HCl (pH 7.5), synthesized solid phase peptides were washed three times to remove the patient's serum. Using a 1:9 diluted Block-ace (product of Dainippon Seiyaku K.K.), 100 µl of galactosidase-labelled anti-human IgE antibodies (Pharmacia) were diluted to 40-fold. The diluted solution was added to a 96-well plate, and then each synthesized solid phase peptide was also added. Reaction was allowed to proceed overnight at room temperature. The synthesized solid phase peptide was washed with the same washing solution five times. Thereafter, 200 µl of a solution of 0.1 mM 4-methylumbelliferyl-β-D-galactopyranoside in 0.1% bovine serum albumin/0.1 M NaCl/1 mM MgCl₂/0.1% sodium azide/10 mM phosphate buffer (pH 7.0) were added to a 96-well black plate (manufactured by Dainippon Seiyaku K.K.). Subsequently, the synthesized solid phase peptide was added and reacted for 2 hours at 37°C.
Turning to “NLFFNGPCQ [Asn-Leu-Phe-Phe-Asn-Gly-Pro-Cys-Gln]”, the “reaction with serum IgE of cryptomeria pollinosis patients” value (from here on “reaction with serum IgE”) is recorded as “reacted serum IgE of cryptomeria pollinosis patients”. On to QCKWVNGRE, for which the “reaction with serum IgE” value is listed as “reacted serum IgE of cryptomeria pollinosis patients”.

Turning to `C[C@@H](O)[C@H](NC(=O)[C@H](CS)NC(=O)[C@H](CC(N)=O)NC(=O)[C@@H]1CCCN1)C(=O)N[C@@H](CC(N)=O)C(=O)N[C@@H](CCCCN)C(=O)N[C@@H](CS)C(=O)N[C@@H](Cc1c[nH]cn1)C(=O)NCC(=O)O` [Pro-Asn-Cys-Thr-Asn-Lys-Cys-His-Gly] (H-PNCTNKCHG-OH), the “reaction with serum IgE” value is “reacted serum IgE of cryptomeria pollinosis patients”.

“SASACQNQR [Ser-Ala-Ser-Ala-Cys-Gln-Asn-Gln-Arg]”: the “reaction with serum IgE” value was “reacted serum IgE of cryptomeria pollinosis patients”.

Turning to `C[C@H](NC(=O)[C@H](CO)NC(=O)[C@H](C)NC(=O)[C@H](CO)NC(=O)[C@@H](NC(=O)[C@@H](N)CS)[C@@H](C)O)C(=O)N[C@@H](CS)C(=O)N[C@@H](CCC(N)=O)C(=O)N[C@@H](CC(N)=O)C(=O)O` [Cys-Thr-Ser-Ala-Ser-Ala-Cys-Gln-Asn] (H-CTSASACQN-OH), the “reaction with serum IgE” value is “reacted serum IgE of cryptomeria pollinosis patients”. For “KWVNGREIC [Lys-Trp-Val-Asn-Gly-Arg-Glu-Ile-Cys]”, the “reaction with serum IgE” value was “reacted serum IgE of cryptomeria pollinosis patients”.
